# Assay results from article PMC8707786 (Pharmaceutics, 2021).
# Where two headings read alike, the source gives them in different places.
# What was measured:
# [1] = Pharmacokinetics of sorafenib and sorafenib N-oxide in rat plasma (HPLC-UV), sorafenib alone or with morphine; details: for increase of AUC0–t in the presence of morphine / increase of Cmax in the presence of morphine: ISOR+MF vs. IISOR, rats; for ratio sorafenib N-oxide/sorafenib, Cmax: metabolite/parent ratio; for AUC0–t / AUC0–∞ / Cmax: rat plasma; for Cmax: mean ± SD
# Experimental: (§1) The supernatant volume for each time point used to prepare the HPLC sample was 20 μL.
# (§2) An ammonium acetate 0.1 M, pH = 3.4 (eluent A) and acetonitrile (eluent B) (1:1, v/v) solution were used as a mobile phase. The flow rate was set at 1.0 mL/min. […] Lapatinib was used as the internal standard (IS).
# in vivo = details: male, Wistar, rat, po, 100 mg/kg, Cl/F (apparent plasma clearance)
# Experimental: as §1, §2
# [2] = rat, in vivo
# Experimental: as §1, §2
# [3] = geometric mean ratio of the metabolite/parent ratio
# [4] = geometric mean ratio, sorafenib + morphine vs. sorafenib alone
# [5] = sorafenib 100 mg/kg p.o. + morphine 5 mg/kg i.p. (ISOR+MF, n = 8)
# [6] = sorafenib 100 mg/kg p.o. alone (IISOR, n = 8)
compound,measurement,setting,value
CNC(=O)c1cc(Oc2ccc(NC(=O)Nc3ccc(Cl)c(C(F)(F)F)c3)cc2)cc[n+]1[O-] [sorafenib N-oxide],increase of AUC0–t in the presence of morphine,[1],61.9%
same,increase of Cmax in the presence of morphine,[1],145.5%
same,increase of AUC0–t in the presence of morphine,[1]; 'higher by',0.6 fold
same,increase of Cmax in the presence of morphine,[1]; 'higher by',1.5 fold
same,"ratio sorafenib N-oxide/sorafenib, AUC0–t: Gmean ratio (90% CI) ISOR+MF vs. IISOR",[1]; [3],1.07 (0.70; 1.65)
same,"ratio sorafenib N-oxide/sorafenib, AUC0–∞: Gmean ratio (90% CI) ISOR+MF vs. IISOR",[1]; [3],0.89 (0.53; 1.51)
same,"ratio sorafenib N-oxide/sorafenib, Cmax: Gmean ratio (90% CI) ISOR+MF vs. IISOR",[1]; [3],1.03 (0.67; 1.61)
same,AUC0–t Gmean ratio (90% CI) ISOR+MF vs. IISOR,[1]; [4],1.64 (1.14; 2.36)
same,AUC0–∞ Gmean ratio (90% CI) ISOR+MF vs. IISOR,[1]; [4],1.41 (0.95; 2.08)
same,Cmax Gmean ratio (90% CI) ISOR+MF vs. IISOR,[1]; [4],2.15 (1.50; 3.08)
same,kel Gmean ratio (90% CI) ISOR+MF vs. IISOR,[1]; [4],0.80 (0.47; 1.36)
same,t1/2 Gmean ratio (90% CI) ISOR+MF vs. IISOR,[1]; [4],1.25 (0.73; 2.13)
same,tmax Gmean ratio (90% CI) ISOR+MF vs. IISOR,[1]; [4],0.76 (0.41; 1.39)
same,"ratio sorafenib N-oxide/sorafenib, Cmax","[1]; sorafenib + morphine (ISOR+MF, n = 8)",0.09 ± 0.07 (76.2) µg/mL
same,"ratio sorafenib N-oxide/sorafenib, Cmax","[1]; sorafenib alone (IISOR, n = 8)",0.07 ± 0.02 (26.8) µg/mL
same,AUC0–t,[1]; [5],6.64 ± 2.44 (36.8) µg × h/mL
same,AUC0–∞,[1]; [5],9.39 ± 2.97 (31.6) µg × h/mL
same,Cmax,[1]; [5],0.27 ± 0.16 (57.5) µg/mL
same,AUC0–t,[1]; [6],4.10 ± 1.56 (38.1) µg × h/mL
same,AUC0–∞,[1]; [6],8.61 ± 2.19 (25.4) µg × h/mL
same,Cmax,[1]; [6],0.11 ± 0.02 (21.8) µg/mL
same,kel (elimination rate constant),[1]; [5],0.023 ± 0.012 (51.6) h^−1
same,t1/2 (elimination phase),[1]; [5],39.30 ± 22.54 (57.4) h
same,tmax,[1]; [5],14.50 ± 11.40 (78.6) h
same,kel (elimination rate constant),[1]; [6],0.016 ± 0.010 (60.9) h^−1
same,t1/2 (elimination phase),[1]; [6],53.31 ± 25.23 (47.3) h
same,tmax,[1]; [6],16.38 ± 8.21 (50.1) h
CNC(=O)c1cc(Oc2ccc(NC(=O)Nc3ccc(Cl)c(C(F)(F)F)c3)cc2)ccn1 [sorafenib],CL/F,in vivo,13.3 mL/min/kg
same,lower clearance in the ISOR+MF group,"[2]; male, Wistar",0.4 fold
same,AUC0–∞,"[2]; male, Wistar, po, 100 mg/kg",67050 ± 16700 ng·h/mL
same,AUC0–t/(D/kg),[2],1.25 ± 0.32 µg·kg·h/mL/mg
same,AUC0–∞/(D/kg),[2],1.33 ± 0.33 µg·kg·h/mL/mg
same,adverse effects,"[2]; po, 100 mg/kg",did not cause any adverse effects
